In US20080214455A1, “Novel Chemical Compounds” (SMITHKLINE BEECHAM CORPORATION, priority 2005, published 2008):

Target: T1, hYAK3 (Homo sapiens, UniProt O43781)
T1 construct: GST (N); His6 (C); made in house; host or cells: baculovirus expression system in Sf9 cells
T1 sequence (O43781 142-526): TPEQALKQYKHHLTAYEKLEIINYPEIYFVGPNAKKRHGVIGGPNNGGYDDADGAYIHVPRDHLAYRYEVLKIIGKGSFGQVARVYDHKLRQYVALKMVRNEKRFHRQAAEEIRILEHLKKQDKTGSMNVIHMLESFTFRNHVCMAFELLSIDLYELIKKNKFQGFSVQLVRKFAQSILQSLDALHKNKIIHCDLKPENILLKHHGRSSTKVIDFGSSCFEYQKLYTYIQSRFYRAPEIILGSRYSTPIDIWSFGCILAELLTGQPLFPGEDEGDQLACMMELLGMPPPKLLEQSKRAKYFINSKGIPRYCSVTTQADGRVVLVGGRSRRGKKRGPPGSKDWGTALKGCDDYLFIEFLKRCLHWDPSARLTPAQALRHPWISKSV
Test: YAK3 Scintillation Proximity Assay using Ser164 of myelin basic protein as the phosphoacceptor (kinase assay of purified hYAK3)
Assay type: biochemical
Settings: purified GST-hYak3-His6; 1 μM ATP; 4 μM Ser164 peptide; 2 hours at room temperature
Method: Substrate phosphorylation assays were carried out as follows:
YAK3 Scintillation Proximity Assays Using Ser164 of Myelin Basic Protein as the Phosphoacceptor
The source of Ser164 substrate peptide The biotinylated Ser164, S164A peptide(LGGRDSRAGS*PMARRKK-ahx-Biotin-Amide), sequence derived from the C-terminus of bovine myelin basic protein (MBP) with Ser162 substituted as Ala 162, was purchased from California Peptide Research Inc. (Napa, Calif.), and its purity was determined by HPLC. Phosphorylation occurs at position 164 (marked S* above). The calculated molecular mass of the peptide is 2166 dalton. Solid sample was dissolved at 10 mM in DMSO, aliquoted, and stored at −20 C until use. […]
Kinase assay of purified hYAK3: Assays were performed in 96 well (Costar, Catalog No.3789) or 384 well plates (Costar, Catalog No.3705). […] Compounds, titrated in DMSO, were evaluated at concentrations ranging from 50 μM to 0.2 nM. […]
The data for compound dose responses were plotted as % Inhibition, calculated with the data reduction formula 100*(1-[(U1-C2)/(C1-C2)]), versus concentration of compound, where U is the unknown value, C1 is the average control value obtained for DMSO, and C2 is the average control value obtained for 0.05M EDTA. […] The results for each compound were recorded as pIC50 calculated as follows: pIC50=−Log 10(K).

IC50: 1.26 nM
Structure (SMILES): O=C1N=C(Nc2c(Cl)cccc2Cl)S/C1=C\c1ccc2ncc(N3CCOCC3)nc2c1 [Example 1, (5Z)-2-[(2,6-Dichlorophenyl)amino]-5-{[3-(4-morpholinyl)-6-quinoxalinyl]methylidene}-1,3-thiazol-4(5H)-one]
